Where two headings read alike, the source gives them in different places. Marks after values point to notes of the source that are not given here.
Legend:
[1] = test system: adjuvant induced arthritis (AIA) rat model
[2] = test system: collagen induced arthritis (CIA) in mice; details: for Average clinical score / Incidence rate: dosing from day 28
[3] = day 13, 0.3 mg/kg p.o. qd from day 13
[4] = day 15, 0.3 mg/kg p.o. qd from day 13
[5] = day 17, 0.3 mg/kg p.o. qd from day 13
[6] = day 20, 0.3 mg/kg p.o. qd from day 13
[7] = day 22, 0.3 mg/kg p.o. qd from day 13
[8] = day 24, 0.3 mg/kg p.o. qd from day 13
[9] = day 27, 0.3 mg/kg p.o. qd from day 13
[10] = day 27, 0.3 mg/kg p.o. qd from day 13, listed as Dexamethasone acetate
[11] = right hind foot, day 27, 0.3 mg/kg p.o. qd
[12] = day 31, 0.3 mg/kg p.o. qd, listed as Dex.
[13] = day 15, 30 mg/kg p.o. bid from day 13
[14] = day 17, 30 mg/kg p.o. bid from day 13
[15] = day 20, 30 mg/kg p.o. bid from day 13
[16] = day 22, 30 mg/kg p.o. bid from day 13
[17] = day 24, 30 mg/kg p.o. bid from day 13

In the case of `C[C@@H]1C[C@H]2[C@@H]3CCC4=CC(=O)C=C[C@]4(C)[C@@]3(F)[C@@H](O)C[C@]2(C)[C@@]1(O)C(=O)CO` [Dexamethasone], the “Inhibition rate (total pathological score vs solvent control)” value ([1]; 0.3 mg/kg p.o. qd) is reported as 72.5%, the “Clinical score (mean)” value [1, 3] is reported as 6.0 and the “Foot volume (mean)” value [1, 3] is reported as 1.9 mL. The “Clinical score (mean)” value [1, 4] was 5.3*, the “Foot volume (mean)” value [1, 4] was 1.7**** mL and the “Clinical score (mean)” value [1, 5] was 4.1****. For the same compound, the “Foot volume (mean)” value [1, 5] was 1.4**** mL, the “Clinical score (mean)” value [1, 6] was 3.4**** and the “Foot volume (mean)” value [1, 6] was 1.3**** mL. The “Clinical score (mean)” value [1, 7] was 3.1****, the “Foot volume (mean)” value [1, 7] was 1.3**** mL and the “Clinical score (mean)” value [1, 8] was 3.1****. For the same compound, the “Foot volume (mean)” value [1, 8] was 1.2**** mL, the “Clinical score (mean)” value [1, 9] was 2.7 and the “Foot volume (mean)” value [1, 9] was 1.21 mL. The “Clinical score (mean)” value [1, 10] was 2.9****, the “Foot volume (mean)” value [1, 10] was 1.2**** mL and the “Pathological score: Bone resorption” value [1, 11] was 0.6 ± 0.2. The “Pathological score: Cartilage injury” value [1, 11] was 0.6 ± 0.2, the “Pathological score: Inflammatory cell infiltration” value [1, 11] was 1.8 ± 0.2 and the “Pathological score: Pannus formation” value [1, 11] was 1.4 ± 0.3. For the same compound, the “Pathological score: Total score” value [1, 11] was 4.4±0.8, the “Pathological score: Total score” value ([1]; right hind foot, day 27, 0.3 mg/kg p.o. qd, listed as Dexamethasone acetate) was 4.4 ± 0.8 and the “Inhibition rate (clinical score AUC vs control group)” value ([2]; 0.3 mg/kg p.o. qd 14 days) was 97.3%. For the same compound, the “Inhibition rate (clinical score AUC vs control group)” value ([2]; 0.3 mg/kg p.o. qd 14 days, listed as Dex.) was 97.3%, the “AUC ± SEM (area under incidence/clinical score curve)” value ([2]; administration period, 0.3 mg/kg p.o. qd 14 days) was 1.38 ± 0.81 and the Average clinical score ([2]; day 21, 0.3 mg/kg p.o. qd) was 0.00 ± 0.00. For the same compound, the Incidence rate ([2]; day 21, 0.3 mg/kg p.o. qd) was 0%, the Average clinical score ([2]; day 24, 0.3 mg/kg p.o. qd) was 0.00 ± 0.00 and the Incidence rate ([2]; day 24, 0.3 mg/kg p.o. qd) was 0%. The Average clinical score ([2]; day 27, 0.3 mg/kg p.o. qd) was “about 0.3”, the Incidence rate ([2]; day 27, 0.3 mg/kg p.o. qd) was 25% and the Average clinical score ([2]; day 27, 0.3 mg/kg p.o. qd, listed as Dex.) was 0.25 ± 0.16. The Average clinical score ([2]; day 28, 0.3 mg/kg p.o. qd) was 0.50 ± 0.27, the Incidence rate ([2]; day 28, 0.3 mg/kg p.o. qd) was 38% and the Average clinical score ([2]; day 29, 0.3 mg/kg p.o. qd) was 0.25 ± 0.16. It also gave an Incidence rate ([2]; day 29, 0.3 mg/kg p.o. qd) of 25%, an Average clinical score ([2]; day 31, 0.3 mg/kg p.o. qd) of 0 and an Incidence rate ([2]; day 31, 0.3 mg/kg p.o. qd) of 0%. It also gave an Average clinical score [2, 12] of 0.00 ± 0.00, an Incidence rate [2, 12] of 0% and an Average clinical score ([2]; day 34, 0.3 mg/kg p.o. qd) of 0.00 ± 0.00. It also gave an Incidence rate ([2]; day 34, 0.3 mg/kg p.o. qd) of 0%, an Average clinical score ([2]; day 36, 0.3 mg/kg p.o. qd) of 0.00 ± 0.00 and an Incidence rate ([2]; day 36, 0.3 mg/kg p.o. qd) of 0%. The Average clinical score ([2]; day 38, 0.3 mg/kg p.o. qd) was 0.00 ± 0.00, the Incidence rate ([2]; day 38, 0.3 mg/kg p.o. qd) was 0% and the Average clinical score ([2]; day 41, 0.3 mg/kg p.o. qd) was 0.00 ± 0.00. For the same compound, the Incidence rate ([2]; day 41, 0.3 mg/kg p.o. qd) was 0%.

`O=C(Nc1nc2cccc(-c3ccc(CN4CCS(=O)(=O)CC4)cc3)n2n1)C1CC1` [Filgotinib] was tested, and the “Clinical score (mean)” value [1, 13] was 6.6, the “Foot volume (mean)” value [1, 13] was 2.2 mL and the “Clinical score (mean)” value [1, 14] was 6.3. The “Foot volume (mean)” value [1, 14] was 2.0** mL, the “Clinical score (mean)” value [1, 15] was 5.8** and the “Foot volume (mean)” value [1, 15] was 1.9**** mL. For the same compound, the “Clinical score (mean)” value [1, 16] was 5.5***, the “Foot volume (mean)” value [1, 16] was 2.0**** mL and the “Clinical score (mean)” value [1, 17] was 5.4****. For the same compound, the “Foot volume (mean)” value [1, 17] was 2.0**** mL, the “Foot volume (mean)” value ([1]; day 27, 30 mg/kg p.o. bid from day 13) was 1.9**** mL and the “Pathological score: Bone resorption” value ([1]; right hind foot, day 27, 30 mg/kg p.o. bid) was 3.6 ± 0.2. The Incidence rate ([2]; day 21, 15 mg/kg p.o. bid) was 0%, the Incidence rate ([2]; day 24, 15 mg/kg p.o. bid) was 0% and the Incidence rate ([2]; day 27, 15 mg/kg p.o. bid) was 25%. It also gave an Incidence rate ([2]; day 29, 15 mg/kg p.o. bid) of 50%, an Incidence rate ([2]; day 31, 15 mg/kg p.o. bid) of 75% and an Incidence rate ([2]; day 34, 15 mg/kg p.o. bid) of 88%. For the same compound, the Incidence rate ([2]; day 36, 15 mg/kg p.o. bid) was 88%, the Incidence rate ([2]; day 38, 15 mg/kg p.o. bid) was 88% and the Incidence rate ([2]; day 41, 15 mg/kg p.o. bid) was 100%.
